In assay [1] the test system is Bradyrhizobium oligotrophicum ECU1212 resting cells. Put plainly: Asymmetric oxidation of thioethers by whole resting cells. It is filed as cell-based. Conditions: substrate 0.1 g/L, catalyst loading 10 g/L, 30° C., 180 rpm. As for the experimental part: Optionally, resting cells harvested from the culture of Bradyrhizobium oligotrophicum ECU1212 are used to asymmetrically catalyze the oxidation of lansoprazole thioether to prepared (R)-lansoprazole under the conditions that the thioether substrate concentration is 0.1 g/L, the catalyst loading is 10 g/L, and the reaction is carried out at 30° C. under stirring at 180 rpm. The conversion rate of lansoprazole thioether can be up to 80%, and the optical purity can be up to 99% ee(R). it can be seen that the Bradyrhizobium oligotrophicum ECU1212 comprises functional enzyme(s) which serve to asymmetrically catalyze the oxidation and have a high catalytic conversion rate. Thus, it can solve the problem that the conventional bio-catalysts have low conversion rate in the asymmetric catalytic oxidation process. […]
To 100 ml Tris-HCl buffer (100 mmol/L, pH 9.0) was added 1 g of Bradyrhizobium oligotrophicum ECU1212 lyophilized cells (lyophilized cells prepared in accordance with Example 2), and thioanisole and methanol were added to a final concentration of 37 g/L, 10% (v/v). […] Then, the residue was dissolved in 0.5 ml isopropanol, and the solution was analyzed in accordance with the method of Example 7 for the conversion of reaction and the ee value of product. […]

A further assay deals with Recombinant BoTEMO. Put plainly: Asymmetric oxidation of thioethers by recombinant BoTEMO crude enzyme with glucose dehydrogenase recycling. The assay is classed as biochemical, Bradyrhizobium oligotrophicum ECU1212. To be noted: 0.2 g crude enzyme powders in 10 ml, 2 g/L substrate, 25° C., 24 h. As for the experimental part:
The analysis is carried out with a high performance liquid chromatograph (HPLC) under the conditions of: a chiral OD-H column ([…], 5 μm particle size, Daicel), a mobile phase of n-hexane:isopropanol=93:7, a flow rate of 1 ml/min, and UV detection at 254 nm; or an AS-H column (250 mm×4.6 mm, 5 μm particle size, Daicel), a mobile phase of n-hexane:isopropanol=55:45, a flow rate of 0.5 mL/min, and UV detection at 254 nm.
To 0.5 ml potassium phosphate buffer (100 mmol/L, pH 9.0) was added 100 μL of crude enzyme solution of BoTEMO (the crude enzyme solution in accordance with the method of Example 5) and a crude enzyme solution of glucose dehydrogenase, and thioanisole, methanol, NADP^+ and glucose were added to the final concentration of 2 mmol/L, 10% (v/v), 0.2 mmol/L and 3.6 g/L, respectively. At 25° C. and 1000 rpm, the mixture was shaken for 1 h. After completion of reaction, 0.6 ml of ethyl acetate was added for extraction. The extract was dried over anhydrous sodium sulfate, and evaporated to remove the solvent. Then, the residue was dissolved in 0.5 ml of isopropanol. The mixture was analyzed in accordance with the method of Example 7 for measure the conversion of reaction and the ee value of product. The conversion of reaction was above 99%, and the ee value of product was above 99% (S).
To 0.5 ml of potassium phosphate buffer (100 mmol/L, pH 9.0) was added 100 μL crude enzyme solution of BoTEMO (the crude enzyme solution prepared in accordance with the method of Example 5) and a crude enzyme solution of glucose dehydrogenase, and omeprazole thioether, methanol, NADP^+ and glucose were added to the final concentrations of 0.2 mmol/L, 10% (v/v), 0.2 mmol/L and 3.6 g/L, respectively. At 25° C. and 1000 rpm, the mixture was shaken for 1 h. After completion of reaction, 0.6 ml of ethyl acetate was added for extraction. […] Then, the residue was dissolved in 0.5 ml isopropanol, and the solution was analyzed in accordance with the method of Example 7 for measuring the conversion of reaction and the ee value of product. […]
To 10 ml of potassium phosphate buffer (100 mmol/L, pH 9.0) was added 0.1 g of lyophilized crude enzyme powders of BoTEMO (crude enzyme powders prepared in accordance with the method of Example 5) and 0.02 g of lyophilized crude enzyme powder of glucose dehydrogenase (15 U/mg), and 1-3 g/L of omeprazole thioether/lansoprazole thioether/pantoprazole thioether/rabeprazle thioether/ilaprazole thioether, 10% (v/v) of methanol, 0.2 mmol/L of NADP^+ and 10 g/L of glucose were added. […] Then, the residue was dissolved in 0.5 ml of isopropanol, and the solution was analyzed in accordance with the method of Example 7 for measuring the conversion of reaction and the ee value of product. […]

A further assay relates to BoTEMO-M1. Put plainly: Asymmetric oxidation of lansoprazole thioether by BoTEMO-M1. The assay is classed as biochemical, Bradyrhizobium oligotrophicum ECU1212. To be noted: 10 g/L substrate, 25° C., 24 h. As for the experimental part: (§1) To 100 ml Tris-HCl buffer (100 mmol/L, pH 9.0) was added 1 g of lyophilized crude enzyme powders of BoTEMO-M1 and 0.2 g crude enzyme of glucose dehydrogenase. Lansoprazole thioether, methanol, NADP^+ and glucose were added to the final concentrations of 10 g/L, 10% (v/v), 0.2 mmol/L and 15 g/L, respectively. The reaction was stirred at 25° C. and 180 rpm for 24 h. When the lansoprazole thioether was asymmetrically catalytically oxidized to (R)-lansoprazole, the resultant conversion of the reaction was above 99%, and the ee value of product was above 99% (R).
as §1, with “To 2 L” for “To 100 ml”, “added 20” for “added 1”, “g” for “g of”, “and 4” for “and 0.2”, “of” for “of the”, “(R). Separation by extraction gave […] of the product (R)-lansoprazole, and the yield was 86%.” for “(R).”

The next assay concerns BoTEMO-M2. Put plainly: Asymmetric oxidation of lansoprazole thioether by BoTEMO-M2. It is filed as biochemical, Bradyrhizobium oligotrophicum ECU1212. To be noted: BoTEMO-M2 powders in 100 ml, 3 g/L substrate, 25° C., 24 h. The method, then: To 100 ml Tris-HCl buffer (100 mmol/L, pH 9.0) was added lyophilized crude enzyme powders of BoTEMO-M2 and 0.2 g crude enzyme of glucose dehydrogenase. Lansoprazole thioether, methanol, NADP^+ and glucose were added to the final concentrations of 3 g/L, 10% (v/v), 0.2 mmol/L and 5.4 g/L, respectively. The reaction was stirred at 25° C. and 180 rpm for 24 h. When the lansoprazole thioether was asymmetrically catalytically oxidized to (R)-lansoprazole, the resultant conversion of the reaction was above 99%, and the ee value of product was above 99% (R).

Assay [2] relates to engineered cyclohexanone monooxygenase (CHMO). To be noted: substrate loading 1.5 g/L, after 17 h; cited from earlier work.

`Cc1c(OCC(F)(F)F)ccnc1CSc1nc2ccccc2[nH]1` [lansoprazole thioether]: the conversion rate entry in assay [1] is given as “up to 80%”. Moreover, the conversion of reaction result in the assay with Recombinant BoTEMO and in the assay with BoTEMO-M1 (20 g BoTEMO-M1 powders in 2 L) was “above 99%” each time. Also, the “conversion of the reaction” value with BoTEMO-M1 (1 g BoTEMO-M1 powders in 100 ml) and in the assay on BoTEMO-M2 was “above 99%” throughout. Besides, the conversion in assay [2] is reported as 1.2%.

The values are drawn from US10787651B2, “Bradyrhizobium monooxygenase and use thereof for preparation of chiral sulfoxide” (JIANGSU AOSAIKANG PHARMACEUTICAL CO., LTD., priority 2018, dated 2020).
